Read-outs that look alike come from different tables or passages of the source.

Results on three molecules are retold here after patent US20240325530A1, “COMBINATION THERAPIES” (Versanis Bio, Inc., priority 2021, published 2024).

A short description of series [1]: Pharmacokinetics of semaglutide and CDD866 alone and combined in DIO mice. The series is classed as in vivo. Particulars: analyte semaglutide, mean plasma; for MRT inf / MRT last: mouse; for MRT inf: read-out: MRT0-inf; for MRT last: read-out: MRT0-last. On the procedure:
Dedicated cohorts of diet induced obesity (DIO) mice were used. Blood sampling was performed at 5 time points, with 3 mice per time point.

A short description of series [2]: Obese mouse model (60% fat diet), initial study: food intake, body composition by MRI, physical activity. More on the design: species or system C57B1/6J mice. Particulars: in vivo. On the procedure: C57B1/6J mice at 5-6 weeks of age were fed a 60% fat diet for 14 weeks and reached an average body weight of 49 grams at the start of dosing, as an obese mouse model. Employing a modified 3×3 factorial design, groups of mice (n=8 per group) received a murinized version of bimagrumab, CDD866, at 0.3 mg/kg or 20 mg/kg intraperitoneally (i.p.) weekly and/or semaglutide at 5 μg/kg or 40 μg/kg subcutaneously (s.c.) daily. The high fat diet was continued through the treatment period, and food intake and body weight were monitored twice weekly. Clinical observations, body composition by MRI, and physical activity, were assessed once weekly.

Series [3] can be described thus: DIO mice: CDD866 combined with semaglutide, liraglutide or tirzepatide (body weight, fat, lean mass, food intake, open field). Particulars: Day 22, DIO mice; CDD866 20 mg/kg, semaglutide 40 μg/kg, tirzepatide 45/22.5 μg/kg (Table 4). The series is classed as in vivo. The protocol:
DIO mice received a murinized version of bimagrumab, CDD866, at 20 mg/kg intraperitoneally (i.p.) weekly in combination with semaglutide (40 μg/kg once daily), liraglutide (40 μg/kg twice daily), or tirzepatide at 45 μg/kg once daily and after day 11, 22.5 μg/kg once daily) subcutaneously (s.c.). The GLP-1 agonists in this study were not dose escalated.

For series [4] the following is noted: overweight and obese patients; cited from earlier work.
The mark [5] stands for this setting: group CDD866-20 mpk + Semaglutide-40 ug/kg.

Turning to `CC[C@H](C)[C@H](NC(=O)[C@H](Cc1ccccc1)NC(=O)[C@H](CCC(=O)O)NC(=O)[C@H](CCCCNC(=O)COCCOCCNC(=O)COCCOCCNC(=O)CC[C@H](NC(=O)CCCCCCCCCCCCCCCCC(=O)O)C(=O)O)NC(=O)[C@H](C)NC(=O)[C@H](C)NC(=O)[C@H](CCC(N)=O)NC(=O)CNC(=O)[C@H](CCC(=O)O)NC(=O)[C@H](CC(C)C)NC(=O)[C@H](Cc1ccc(O)cc1)NC(=O)[C@H](CO)NC(=O)[C@H](CO)NC(=O)[C@@H](NC(=O)[C@H](CC(=O)O)NC(=O)[C@H](CO)NC(=O)[C@@H](NC(=O)[C@H](Cc1ccccc1)NC(=O)[C@@H](NC(=O)CNC(=O)[C@H](CCC(=O)O)NC(=O)C(C)(C)NC(=O)[C@@H](N)Cc1cnc[nH]1)[C@@H](C)O)[C@@H](C)O)C(C)C)C(=O)N[C@@H](C)C(=O)N[C@@H](Cc1c[nH]c2ccccc12)C(=O)N[C@@H](CC(C)C)C(=O)N[C@H](C(=O)N[C@@H](CCCNC(=N)N)C(=O)NCC(=O)N[C@@H](CCCNC(=N)N)C(=O)NCC(=O)O)C(C)C` [Semaglutide, semaglutide], in series [1] (setting [5]), the Tlast is 24.0 h, the MRT inf was found to be 16.6 h and the MRT last turned out to be 9.76 h. In addition, in series [1] (group Semaglutide-5 ug/kg), the Tlast is recorded as 8.00 h and the MRT last turned out to be 4.38 h. Further, in series [1] (group Semaglutide-40 ug/kg), the Tlast amounted to 24.0 h, the MRT inf is 15.2 h and the MRT last turned out to be 10 h. The clinical observations entry in series [2] was “no clinical observations of concern”.

Turning to tirzepatide, in series [3], the “Body weight” value is 40.2 ± 1.3 g, the “Fat” value was found to be 12.7 ± 1.4 g and the “Lean mass” value amounted to 25.4 ± 0.4 g.

B1: Bimagrumab: ActRII receptor antibody, sequences SEQ ID NO: 1-10 (antibody, chains of the INN, looked up, V domains shown)
VH: QVQLVQSGAEVKKPGASVKVSCKASGYTFTSSYINWVRQAPGQGLEWMGTINPVSGSTSYAQKFQGRVTMTRDTSISTAYMELSRLRSDDTAVYYCARGGWFDYWGQGTLVTVSS
VL: QSALTQPASVSGSPGQSITISCTGTSSDVGSYNYVNWYQQHPGKAPKLMIYGVSKRPSGVSNRFSGSKSGNTASLTISGLQAEDEADYYCGTFAGGSYYGVFGGGTKLTVL
Consider B1, for which the “increase in muscle mass” value in series [4] is reported as 4-8%.
